EC50 data for 36 molecules are collected here from patent US9353051B2, “Antiviral drugs for treatment or prevention of dengue infection” (Siga Technologies Inc., priority 2007, dated 2016).

This experiment concerns Dengue-2 (Strain New Guinea C). Put plainly: viral yield assay against Dengue-2 in Vero cells. Format: cell-based. The conditions noted are these: Dengue virus; Vero cells, MOI 0.1, harvested 48 hours post infection; read-out: Activity (anti-dengue 2 viral activity, EC50). The method, then:
Compounds that were active in the primary screen were also tested for activity in viral yield assays. […] Vero cells in 12-well plates were infected with dengue-2 virus at a multiplicity of infection (MOI) of 0.1, treated with compound (or DMSO as a control), incubated at 37° C., harvested 48 hours post infection and titered on Vero cells as described above. The EC50 was calculated through ExcelFit. Those compounds with activity below 1 μM are indicated with “A”, those with activity between 1 and 10 μM are indicated with “B”, those with activity between 10 and 25 μM with “C”, and those with activity above 25 μM are indicated with “D”.

By EC50 is commonly meant the concentration giving half of the maximal effect. As to `CCN(CC)S(=O)(=O)c1cccc(NC(=O)Cn2cnc3ccccc3c2=O)c1` [Compound 65, N-(3-Diethylsulfamoyl-phenyl)-2-(4-oxo-4H-quinazolin-3-yl)-acetamide], the EC50 was over 25 µM. The result for `CCN(CC)S(=O)(=O)c1ccc(C(=O)OCc2nc3ccccc3c(=O)n2CC(N)=O)cc1` [Compound 66, 4-Diethylsulfamoyl-benzoic acid 3-carbamoylmethyl-4-oxo-3,4-dihydro-quinazolin-2-ylmethyl ester] reads over 25 µM; that for `CCN(CC)S(=O)(=O)c1ccc(C(=O)Nn2cnc3ccccc3c2=O)cc1` [Compound 67, 4-Diethylsulfamoyl-N-(4-oxo-4H-quinazolin-3-yl)-benzamide], over 25 µM.

For `CCN(CC)S(=O)(=O)c1ccc(C(C)NC(=O)CCn2nnc3ccccc3c2=O)cc1` (stereo not drawn) [Compound 68, N-[1-(4-Diethylsulfamoyl-phenyl)-ethyl]-3-(4-oxo-4H-benzo[d][1,2,3]triazin-3-yl)-propionamide], the EC50 is over 25 µM.

As for `CCN(CC)S(=O)(=O)c1ccc(CNC(=O)Cn2cnc3ccccc3c2=O)cc1` [Compound 69, N-(4-Diethylsulfamoyl-benzyl)-2-(4-oxo-4H-quinazolin-3-yl)-acetamide], the EC50 was over 25 µM.

Take `CCN(CC)S(=O)(=O)c1ccc(NC(=O)CNC(=O)c2cccc(S(=O)(=O)N(C)C)c2)cc1` [Compound 70, N-[(4-Diethylsulfamoyl-phenylcarbamoyl)-methyl]-3-dimethylsulfamoyl-benzamide]: the EC50 is over 25 µM.

Take `CCN(CC)S(=O)(=O)c1ccc(NC(=O)CSc2nc3ccccc3c(=O)n2C)cc1` [Compound 71, N-(4-Diethylsulfamoyl-phenyl)-2-(3-methyl-4-oxo-3,4-dihydro-quinazolin-2-ylsulfanyl)-acetamide]: the EC50 is over 25 µM. With `CCN(CC)S(=O)(=O)c1ccc(NC(=O)CNC(=O)c2ccc(C)cc2)cc1` [Compound 72, N-[(4-Diethylsulfamoyl-phenylcarbamoyl)-methyl]-4-methyl-benzamide], the EC50 is over 25 µM. The result for `CCN(CC)S(=O)(=O)c1ccc(NC(=O)CNC(=O)c2ccc(S(=O)(=O)NC(C)C)cc2)cc1` [Compound 73, N-[(4-Diethylsulfamoyl-phenylcarbamoyl)-methyl]-4-isopropylsulfamoyl-benzamide] reads over 25 µM; that for `CCN(CC)S(=O)(=O)c1ccc(NC(=O)CNC(=O)c2ccc3ccccc3c2)cc1` [Compound 74, Naphthalene-2-carboxylic acid[(4-diethylsulfamoyl-phenylcarbamoyl)-methyl]-amide], over 25 µM.

In the case of `CCN(CC(=O)Nc1ccc(S(=O)(=O)N(CC)CC)cc1)Cc1nc2cc(Cl)ccc2c(=O)[nH]1` [Compound 75, 2-[(7-Chloro-4-oxo-3,4-dihydro-quinazolin-2-ylmethyl)-ethyl-amino]-N-(4-diethylsulfamoyl-phenyl)-acetamide], the EC50 was over 25 µM. The result for `CCN(CC)C(=O)c1ccc(NCC(=O)Nc2ccc(S(=O)(=O)N(CC)CC)cc2)cc1` [Compound 76, 4-{[(4-Diethylsulfamoyl-phenylcarbamoyl)-methyl]-amino}-N,N-diethyl-benzamide] reads over 25 µM; that for `CCN(CC)S(=O)(=O)c1ccc(NC(=O)CCn2nnc3ccccc3c2=O)cc1` [Compound 77, N-(4-Diethylsulfamoyl-phenyl)-3-(4-oxo-4H-benzo[d][1,2,3]triazin-3-yl)-propionamide], over 25 µM; that for `CCN(CC)S(=O)(=O)c1ccc(NC(=O)Cn2c(=O)n(CC)c(=O)c3ccccc32)cc1` [Compound 78, N-(4-Diethylsulfamoyl-phenyl)-2-(3-ethyl-2,4-dioxo-3,4-dihydro-2H-quinazolin-1-yl)-acetamide], over 25 µM. Take `CCN(CC)S(=O)(=O)c1ccc(NC(=O)CNC(=O)c2ccc(OC)c(OC)c2)cc1` [Compound 79, N-[(4-Diethylsulfamoyl-phenylcarbamoyl)-methyl]-3,4-dimethoxy-benzamide]: the concentration for a half-maximal effect (EC50) is over 25 µM. To `CCN(CC)S(=O)(=O)c1ccc(NC(=O)CNC(=O)c2ccc(-c3ccccc3)cc2)cc1` [Compound 80, Biphenyl-4-carboxylic acid [(4-diethylsulfamoyl-phenylcarbamoyl)-methyl]-amide] belongs over 25 µM; to `CCN(CC)S(=O)(=O)c1ccc(NC(=O)COC(=O)Cn2nnc3ccccc3c2=O)cc1` [Compound 81, (4-Oxo-4H-benzo[d][1,2,3]triazin-3-yl)-acetic acid (4-diethylsulfamoyl-phenylcarbamoyl)-methyl ester], over 25 µM; to `O=C(Cn1nnc2ccccc2c1=O)Nc1ccc(S(=O)(=O)N2CCOCC2)cc1` [Compound 82, N-[4-(Morpholine-4-sulfonyl)-phenyl]-2-(4-oxo-4H-benzo[d][1,2,3]triazin-3-yl)-acetamide], over 25 µM.

For `CC(NS(=O)(=O)c1ccc(NC(=O)Cn2nnc3ccccc3c2=O)cc1)C1CC2CCC1C2` (stereo not drawn) [Compound 83, N-[4-(1-Bicyclo[2.2.1]hept-2-yl-ethylsulfamoyl)-phenyl]-2-(4-oxo-4H-benzo[d][1,2,3]triazin-3-yl)-acetamide], the EC50 is over 25 µM. As to `CON(C)S(=O)(=O)c1ccc(NC(=O)Cn2nnc3ccccc3c2=O)cc1` [Compound 84, N-[4-(Methoxy-methyl-sulfamoyl)-phenyl]-2-(4-oxo-4H-benzo[d][1,2,3]triazin-3-yl)-acetamide], the half-maximal effective concentration (EC50) was over 25 µM.

Turning to `CN(C)S(=O)(=O)c1ccc(NC(=O)Cn2nnc3ccccc3c2=O)cc1` [Compound 85, N-(4-Dimethylsulfamoyl-phenyl)-2-(4-oxo-4H-benzo[d][1,2,3]triazin-3-yl)-acetamide], the half-maximal effective concentration (EC50) is over 25 µM. For `CC(C)N(C)S(=O)(=O)c1ccc(NC(=O)Cn2nnc3ccccc3c2=O)cc1` [Compound 86, N-[4-(Isopropyl-methyl-sulfamoyl)-phenyl]-2-(4-oxo-4H-benzo[d][1,2,3]triazin-3-yl)-acetamide], the EC50 was over 25 µM. Take `O=C(Cn1nnc2ccccc2c1=O)Nc1ccc(S(=O)(=O)N2CCCCC2)cc1` [Compound 87, 2-(4-Oxo-4H-benzo[d][1,2,3]triazin-3-yl)-N-[4-(piperidine-1-sulfonyl)-phenyl]-acetamide]: the EC50 was over 25 µM. To `CCN(CC)S(=O)(=O)c1ccc(N(C)C)c(NC(=O)Cn2cnc3ccccc3c2=O)c1` [Compound 88, N-(5-Diethylsulfamoyl-2-dimethylamino-phenyl)-2-(4-oxo-4H-quinazolin-3-yl)-acetamide] belongs over 25 µM; to `CCN(CC)S(=O)(=O)c1ccc(C)c(NC(=O)Cn2cnc3ccccc3c2=O)c1` [Compound 89, N-(5-Diethylsulfamoyl-2-methyl-phenyl)-2-(4-oxo-4H-quinazolin-3-yl)-acetamide], over 25 µM; to `CCN(CC)S(=O)(=O)c1cc(C)c(C)c(NC(=O)Cn2cnc3ccccc3c2=O)c1` [Compound 90, N-(5-Diethylsulfamoyl-2,3-dimethyl-phenyl)-2-(4-oxo-4H-quinazolin-3-yl)-acetamide], over 25 µM. In the case of `CCN(CC)S(=O)(=O)c1ccc(OC)c(NC(=O)Cn2cnc3ccccc3c2=O)c1` [Compound 91, N-(5-Diethylsulfamoyl-2-methoxy-phenyl)-2-(4-oxo-4H-quinazolin-3-yl)-acetamide], the EC50 is over 25 µM. To `CCOc1ccc(S(=O)(=O)N(CC)CC)cc1NC(=O)Cn1cnc2ccccc2c1=O` [Compound 92, N-(5-Diethylsulfamoyl-2-ethoxy-phenyl)-2-(4-oxo-4H-quinazolin-3-yl)-acetamide] belongs over 25 µM; to `CCN(CC)S(=O)(=O)c1ccc(Cl)c(NC(=O)Cn2cnc3ccccc3c2=O)c1` [Compound 93, N-(2-Chloro-5-diethylsulfamoyl-phenyl)-2-(4-oxo-4H-quinazolin-3-yl)-acetamide], over 25 µM. In the case of `CCN(CC)S(=O)(=O)c1ccc(O)c(NC(=O)Cn2nnc3ccccc3c2=O)c1` [Compound 94, N-(5-Diethylsulfamoyl-2-hydroxy-phenyl)-2-(4-oxo-4H-benzo[d][1,2,3]triazin-3-yl)-acetamide], the EC50 was over 25 µM. The result for `CCN(CC)S(=O)(=O)c1ccc(C)c(NC(=O)Cn2nnc3ccccc3c2=O)c1` [Compound 95, N-(5-Diethylsulfamoyl-2-methyl-phenyl)-2-(4-oxo-4H-benzo[d][1,2,3]triazin-3-yl)-acetamide] reads over 25 µM; that for `CCN(CC)S(=O)(=O)c1ccc2c(c1)CCN2Cc1nc2ccccc2c(=O)n1C` [Compound 96, 1-(3-Methyl-4-oxo-3,4-dihydro-quinazolin-2-ylmethyl)-2,3-dihydro-1H-indole-5-sulfonic acid diethylamide], over 25 µM; that for `CCN(CC)S(=O)(=O)c1ccc2c(c1)CCCN2C(=O)Cn1cnc2c(C)cccc2c1=O` [Compound 97, 1-[2-(8-Methyl-4-oxo-4H-quinazolin-3-yl)-acetyl]-1,2,3,4-tetrahydro-quinoline-6-sulfonic acid diethylamide], over 25 µM. To `CN(Cc1ccccc1)S(=O)(=O)c1ccc(NC(=O)CCn2cnc3ccccc3c2=O)cc1` [Compound 98, N-[4-(Benzyl-methyl-sulfamoyl)-phenyl]-3-(4-oxo-4H-quinazolin-3-yl)-propionamide] belongs over 25 µM; to `Cc1ccc(S(=O)(=O)Nc2ccc3ncn(Cc4ccccc4)c(=O)c3c2)cc1` [Compound 99, N-(3-Benzyl-4-oxo-3,4-dihydro-quinazolin-6-yl)-4-methyl-benzenesulfonamide], over 25 µM; to `Cc1nn(CC(=O)Nc2ccc(S(N)(=O)=O)cc2)c(=O)c2ccccc12` [Compound 100, 2-(4-Methyl-1-oxo-1H-phthalazin-2-yl)-N-(4-sulfamoyl-phenyl)-acetamide], over 25 µM.
